From article PMC3445454, “Broad and Cross-Clade CD4^+ T-Cell Responses Elicited by a DNA Vaccine Encoding Highly Conserved and Promiscuous HIV-1 M-Group Consensus Peptides” (PLoS ONE, 2012) come the findings set out here.

Assay [1] concerns the target T1, HLA-DP DPA1*01:03/DPB1*04:01 (Homo sapiens, UniProt P04440+P20036).
T1 sequence (P20036 29-260): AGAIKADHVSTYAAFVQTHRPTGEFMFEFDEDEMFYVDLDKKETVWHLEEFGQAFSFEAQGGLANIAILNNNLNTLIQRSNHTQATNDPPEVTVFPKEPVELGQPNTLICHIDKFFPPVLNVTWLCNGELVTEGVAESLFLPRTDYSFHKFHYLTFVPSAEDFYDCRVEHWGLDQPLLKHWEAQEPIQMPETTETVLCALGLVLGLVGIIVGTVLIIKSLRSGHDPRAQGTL
T1 sequence (P04440 30-258): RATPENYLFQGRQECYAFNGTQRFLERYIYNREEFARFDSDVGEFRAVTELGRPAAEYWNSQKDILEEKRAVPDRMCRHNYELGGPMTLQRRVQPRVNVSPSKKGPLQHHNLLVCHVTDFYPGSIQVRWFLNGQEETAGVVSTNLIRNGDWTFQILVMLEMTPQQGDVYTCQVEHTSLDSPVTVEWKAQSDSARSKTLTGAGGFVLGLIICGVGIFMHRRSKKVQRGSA
As to the kind of experiment: biochemical. The conditions noted are these: for IC50: read-out: Binding capacity/IC50 (nM) DPA1*01:03 DPB1*04:01. It is filed as binding.

Assay [2] has as its target HLA-DP DPA1*02:01/DPB1*01:01 (Homo sapiens, UniProt P04440+P20036, F191V/F38Y/F64Y/G113D/G114E/K142R/L158P/L37V/M105V/M116V/M62Q/P115A/Q81R/R125K/R223Q/T114A/T199I/T259P). As to the kind of experiment: biochemical.

pIC50: −log10 of the molar value. Read-outs that look alike come from different tables or passages of the source. Ends that are not written are not given here.

Chain of HLA-DP DPA1*02:01/DPB1*01:01 (P20036 29-260 A42M/M62Q/Q81R/T114A/K142R/L158P/F191V/T259P, other chains not shown): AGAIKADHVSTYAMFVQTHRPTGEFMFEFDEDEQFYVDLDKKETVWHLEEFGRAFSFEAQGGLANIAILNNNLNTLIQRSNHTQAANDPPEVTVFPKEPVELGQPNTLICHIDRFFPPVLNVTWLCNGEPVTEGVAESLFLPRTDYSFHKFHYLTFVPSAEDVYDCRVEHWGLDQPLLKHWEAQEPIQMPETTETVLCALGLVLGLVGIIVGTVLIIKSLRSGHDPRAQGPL

Consider `CC[C@H](C)[C@H](NC(=O)[C@H](Cc1ccc(O)cc1)NC(=O)CNC(=O)[C@H](CO)NC(=O)[C@H](C)NC(=O)[C@@H](NC(=O)[C@H](Cc1c[nH]cn1)NC(=O)[C@@H](NC(=O)[C@H](C)NC(=O)[C@@H](NC(=O)[C@H](CC(C)C)NC(=O)[C@@H](NC(=O)[C@@H](NC(=O)[C@H](CCCCN)NC(=O)CNC(=O)[C@@H](N)CCC(=O)O)[C@@H](C)CC)[C@@H](C)CC)C(C)C)C(C)C)C(C)C)C(=O)N[C@@H](CCC(=O)O)C(N)=O` [integrase(69-85)], for which, in assay [1], the IC50 is 2830 nM. Besides, the pIC50 (as a rule, −log10 of the IC50, conventionally taken in molar units) in assay [2] was 5.23.
For SEELRSLYNTVATLYCVHQ-NH2 [p17(72-90)] the same measures were 240 nM and 6.07.
In the case of EAVRHFPRPWLHGL-NH2 [vpr(29-42)], the results for the pIC50 in assay [1] and in assay [2] were 4.77 and 5.07, respectively.
Regarding “NYPIVQNLQGQMVHQAISPR-NH2 [p17(131-132)/p24(1-18)]”, the IC50 in assay [1] amounted to 1550 nM. For the same compound, the negative-log IC50 (pIC50) in assay [2] is 5.54.
Turning to `CC[C@H](C)[C@H](NC(=O)[C@H](CCCCN)NC(=O)[C@@H](NC(=O)[C@@H](NC(=O)[C@@H](N)CCC(N)=O)[C@@H](C)CC)[C@@H](C)O)C(=O)N[C@@H](CCC(N)=O)C(=O)N[C@@H](CC(N)=O)C(=O)N[C@@H](Cc1ccccc1)C(=O)N[C@@H](CCCNC(=N)N)C(=O)N[C@H](C(=O)N[C@@H](Cc1ccc(O)cc1)C(=O)N[C@@H](Cc1ccc(O)cc1)C(=O)N[C@@H](CCCNC(=N)N)C(=O)N[C@@H](CC(=O)O)C(=O)N[C@@H](CO)C(=O)N[C@@H](CCCNC(=N)N)C(=O)N[C@@H](CC(=O)O)C(=O)N1CCC[C@H]1C(=O)N[C@H](C(=O)N[C@@H](Cc1c[nH]c2ccccc12)C(N)=O)[C@@H](C)CC)C(C)C` [integrase(216-235)], the negative-log IC50 (pIC50) in assay [1] is 5.97; in assay [2], 6.40.
Turning to `CC(C)C[C@H](NC(=O)[C@H](CCCCN)NC(=O)[C@@H](NC(=O)[C@H](CC(C)C)NC(=O)[C@@H]1CCCN1C(=O)[C@@H]1CCCN1C(=O)[C@@H](NC(=O)[C@H](CC(N)=O)NC(=O)[C@@H](NC(=O)[C@H](Cc1ccccc1)NC(=O)[C@H](CCC(=O)O)NC(=O)[C@H](Cc1c[nH]c2ccccc12)NC(=O)[C@@H](N)CCC(=O)O)C(C)C)[C@@H](C)O)C(C)C)C(=O)N[C@@H](Cc1c[nH]c2ccccc12)C(=O)N[C@@H](Cc1ccc(O)cc1)C(N)=O` [RT(413-427)], the IC50 in assay [1] turned out to be 846 nM. Moreover, the pIC50 in assay [2] was 7.00.
With LNKIVRMYSPVSILDI-NH2 [p24(138-153)], the figures for the pIC50 in assay [1] and in assay [2] were 7.33 and 7.59, respectively.
For the compound `CC[C@H](C)[C@H](NC(=O)[C@@H]1CCCN1C(=O)[C@H](CCC(=O)O)NC(=O)[C@@H](N)CCCCN)C(=O)N[C@H](C(=O)NCC(=O)N[C@@H](C)C(=O)N[C@@H](CCC(=O)O)C(=O)N[C@H](C(=O)N[C@@H](Cc1ccccc1)C(=O)N[C@@H](Cc1ccc(O)cc1)C(=O)N[C@H](C(=O)N[C@@H](CC(=O)O)C(=O)NCC(=O)N[C@@H](C)C(N)=O)C(C)C)[C@@H](C)O)C(C)C` [RT(431-445)], the results for the pIC50 in assay [1] and in assay [2] were 5.33 and 6.69, respectively.
As for `CC[C@H](C)[C@H](NC(=O)CNC(=O)[C@H](CCCCN)NC(=O)[C@H](Cc1c[nH]cn1)NC(=O)[C@H](C)NC(=O)[C@@H]1CCCN1C(=O)[C@@H](NC(=O)[C@H](Cc1c[nH]c2ccccc12)NC(=O)[C@H](CO)NC(=O)[C@H](CC(C)C)NC(=O)[C@H](Cc1ccc(O)cc1)NC(=O)[C@@H](NC(=O)[C@H](CCCCN)NC(=O)[C@H](CCC(=O)O)NC(=O)[C@@H](N)CCCCN)C(C)C)C(C)C)C(=O)NCC(=O)NCC(=O)N[C@@H](CC(N)=O)C(=O)N[C@@H](CCC(=O)O)C(N)=O` [RT(528-546)], the IC50 in assay [1] stood at 1390 nM. The compound also showed a pIC50 in assay [2] of 6.23.
Regarding `CC[C@H](C)[C@H](NC(=O)[C@H](C)NC(=O)[C@@H](N)CCC(=O)O)C(=O)N[C@H](C(=O)N[C@@H](CCCNC(=N)N)C(=O)N[C@H](C(=O)N[C@@H](CC(C)C)C(=O)N[C@@H](CCC(N)=O)C(=O)N[C@@H](CCC(N)=O)C(=O)N[C@@H](CC(C)C)C(=O)N[C@@H](CC(C)C)C(=O)N[C@@H](Cc1ccccc1)C(=O)N[C@H](C(=O)N[C@@H](Cc1c[nH]cn1)C(=O)N[C@@H](Cc1ccccc1)C(=O)N[C@@H](CCCNC(=N)N)C(=O)N[C@H](C(=O)NCC(=O)N[C@@H](CS)C(=O)N[C@@H](CCC(N)=O)C(=O)N[C@@H](Cc1c[nH]cn1)C(=O)N[C@@H](CO)C(=O)N[C@@H](CCCNC(=N)N)C(N)=O)[C@@H](C)CC)[C@@H](C)CC)[C@@H](C)CC)[C@@H](C)CC` [vpr(58-80)], the IC50 in assay [1] was 113 nM. In assay [2], the pIC50 is 5.58.
On to “VVIQDNSDIKVVPRRKAKII-NH2 [integrase(249-268)]”, for which the pIC50 is 5.04 in assay [1] and 5.24 in assay [2].
As for `CSCC[C@H](NC(=O)[C@H](CCCCN)NC(=O)[C@H](C)NC(=O)[C@H](Cc1ccc(O)cc1)NC(=O)[C@H](CCCCN)NC(=O)CNC(=O)[C@@H](NC(=O)[C@H](CCCCN)NC(=O)[C@H](CC(C)C)NC(=O)[C@H](CC(N)=O)NC(=O)[C@H](CCCCN)NC(=O)[C@H](Cc1ccccc1)NC(=O)[C@@H]1CCCN1C(=O)[C@H](CCC(=O)O)NC(=O)[C@@H](N)CCC(N)=O)[C@@H](C)O)C(N)=O` [RT(343-357)], the pIC50 in assay [1] was 7.85; in assay [2], 6.52.
For `CC[C@H](C)[C@H](NC(=O)[C@@H](NC(=O)[C@H](CCCCN)NC(=O)[C@@H](NC(=O)[C@@H]1CCCN1C(=O)[C@H](Cc1c[nH]c2ccccc12)NC(=O)[C@H](CCCNC(=N)N)NC(=O)CNC(=O)[C@H](C)NC(=O)[C@H](CC(C)C)NC(=O)[C@H](CCCCN)NC(=O)[C@H](CC(C)C)NC(=O)[C@@H](NC(=O)[C@H](Cc1ccccc1)NC(=O)[C@H](Cc1ccc(O)cc1)NC(=O)[C@H](C)NC(=O)[C@@H](NC(=O)[C@@H](N)CCC(=O)O)[C@@H](C)O)[C@@H](C)CC)C(C)C)C(C)C)C(N)=O` [integrase(96-113)], the IC50 in assay [1] is 232 nM. For the same compound, the negative logarithm of the IC50 (pIC50) in assay [2] is 6.10.
In the same order, the values of YAKMRSAHTNDVKQL-NH2 [RT(354-368)] are 3550 nM and 5.35.
For the compound IVALIIAIVVWTIV-NH2 [vpu(13-26)], the IC50 in assay [1] was above 30000 nM. Also, in assay [2], the pIC50 is 4.58.
In the same order, the values of VGSLQYLALTALITPKK-NH2 [vif(142-158)] are 33 nM and 6.94.
For “IRYPLTFGWCFKLVPVDPREVEEA-NH2 [nef(133-156)]” the same measures were 44 nM and 6.60.
Consider DEELLKAVRIIKILYQSNP-NH2 [rev(9-27)], for which the pIC50 in assay [1] is 6.20; in assay [2] it was 6.34.
For the compound `CC[C@H](C)[C@H](NC(=O)[C@H](C)NC(=O)[C@H](CCCCN)NC(=O)[C@H](CCCCN)NC(=O)CNC(=O)[C@H](CS)NC(=O)[C@@H](NC(=O)[C@H](CCC(=O)O)NC(=O)[C@@H](NC(=O)[C@H](CC(C)C)NC(=O)[C@@H](NC(=O)[C@H](CCC(N)=O)NC(=O)[C@H](CC(=O)O)NC(=O)[C@H](Cc1ccc(O)cc1)NC(=O)[C@H](CCC(N)=O)NC(=O)[C@H](CCCNC(=N)N)NC(=O)[C@@H](NC(=O)[C@H](CCCCN)NC(=O)[C@@H](NC(=O)[C@@H](N)Cc1ccccc1)[C@@H](C)CC)C(C)C)[C@@H](C)CC)[C@@H](C)CC)[C@@H](C)CC)C(=O)NCC(=O)N[C@H](C(=O)N[C@H](C(N)=O)C(C)C)[C@@H](C)O` [protease(53-75)], the IC50 in assay [1] came out at 452 nM. Moreover, in assay [2], the negative logarithm of the IC50 (pIC50) is 6.95.
As for `CC[C@H](C)[C@H](NC(=O)[C@H](CCCCN)NC(=O)[C@H](CCC(N)=O)NC(=O)[C@@H](NC(=O)[C@H](C)NC(=O)[C@H](CCC(=O)O)NC(=O)[C@@H](N)[C@@H](C)O)C(C)C)C(=O)N[C@@H](C)C(=O)N[C@H](C(=O)N[C@@H](CCC(=O)O)C(=O)N[C@@H](CO)C(=O)N[C@H](C(=O)N[C@H](C(=O)N[C@H](C(=O)N[C@@H](Cc1c[nH]c2ccccc12)C(=O)NCC(=O)N[C@@H](CCCCN)C(=O)N[C@H](C(=O)N1CCC[C@H]1C(=O)N[C@@H](CCCCN)C(=O)N[C@@H](Cc1ccccc1)C(=O)N[C@@H](CCCNC(=N)N)C(=O)N[C@@H](CC(C)C)C(N)=O)[C@@H](C)O)[C@@H](C)CC)C(C)C)[C@@H](C)CC)[C@@H](C)O` [RT(369-391)], the pIC50 in assay [1] was 5.49; in assay [2] it was 5.81.
